US11873291B2, “Quinoline cGAS antagonist compounds” (ImmuneSensor Therapeutics, Inc., priority 2020, dated 2024)
Where two headings read alike, the source gives them in different places.

Legend:
[1] = molecular target: T1, recombinant human cGAS (aa147-522) (Homo sapiens, UniProt Q8N884); assay: In vitro inhibition assay of cGAS activity (ATP consumption, KinaseGlo Max); format: biochemical
T1 construct: recombinant human cGAS (aa147-522); His6-SUMO (cleaved yes); made in house; host or cells: E. coli BL21/pLys
In short: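 De-tagged recombinant human cGAS (aa147-522, 1.5 μg/mL) was incubated 20 min at 37 °C with herring testis DNA, 6.6 μM ATP and 0.1 mM GTP in Tris pH 7.5/MgCl2 buffer plus serial compound dilutions. Remaining ATP was read by KinaseGlo Max luminescence, and IC50 was fitted from % ATP consumption versus log concentration.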

[2] = system: cGAS activity in Reporter THP1 cell line; assay: Cellular assay to measure cGAS activity: ISRE-Gaussia luciferase reporter THP1 cells transfected with ISD; format: cell-based; conditions: Homo sapiens
Procedure: Cellular assay to measure cGAS activity: Reporter THP1 cell line harboring a gene encoding Gaussia Luciferase under the control of 5 tandem repeats of interferon-stimulated response elements (ISRE) fused to an ISG54 minimal promoter was used to test inhibition of cGAS activity by synthetic compounds in human cells. These cells were plated on 96-well plates at 0.3×10^6/well and incubated with serial dilutions of compounds or DMSO for 5 min, followed by transfection of 2 μg/mL of ISD (Interferon Stimulatory DNA, a 45 bp DNA oligo) or mock transfected using lipofectamine 2000 (Life Technology) method, according to manufacturer's instructions. 16 hours later, 15 μL of the media from each well was transferred to a new plate, 50 μL of solution containing 50 mM Hepes-NaOH, pH 6.5, 50 mM NaCl, 10 mM EDTA, 1 μM of coelenterazine was added to each well and luminescence was measured immediately. Fold increase in luminescence compared to mock transfection was plotted against concentrations of each compound, and IC50 is calculated using Graphpad. To evaluate the specificity of a compound, the same procedure was performed except that cells were transfected with 2 μg/mL poly(I:C) or infected with Sendai Virus (SeV) at 50 Unit/mL, which are known to activate the RIG-I-MAVS pathway. A specific inhibitory compound should inhibit interferon induction by DNA but have minimal effect on poly(I:C) or Sendai virus induced interferon reporter gene expression.
The letter codes for cGAS IC50 include: A (<2 μM); B (2-10 μM); C (>10 μM).

[3] = Table 3, read-out: cGAS Inhibition Results IC50
[4] = THP-1, untitled table after Table 4 (continuation)
[5] = THP-1, Table 4, Gaussia luciferase
[6] = Table 2, read-out: cGAS Inhibition Results IC50

T1 sequence (Q8N884 147-522): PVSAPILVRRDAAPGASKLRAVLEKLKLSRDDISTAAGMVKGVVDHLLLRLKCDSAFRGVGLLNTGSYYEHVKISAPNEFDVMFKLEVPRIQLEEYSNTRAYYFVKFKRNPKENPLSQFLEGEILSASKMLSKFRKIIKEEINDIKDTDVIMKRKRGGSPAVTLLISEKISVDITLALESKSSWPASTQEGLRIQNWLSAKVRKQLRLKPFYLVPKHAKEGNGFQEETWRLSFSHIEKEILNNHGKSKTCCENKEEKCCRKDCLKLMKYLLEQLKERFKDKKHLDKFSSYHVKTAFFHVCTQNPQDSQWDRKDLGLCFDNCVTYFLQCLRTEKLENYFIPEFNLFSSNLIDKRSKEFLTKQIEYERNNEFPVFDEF

Row | Compound | IC50 [1, 3] | IC50 [2, 4] | IC50 [2, 5] | IC50 [1, 6]
1 | C[C@H]1CC[C@@H](COCCC(=O)O)N1c1cc(-n2ccnc2)c2ccc(Cl)c(Cl)c2n1 [I-810] | < 2000 nM | < 2000 nM | – | –
2 | O=C(O)CCOCCN(Cc1ccccc1)c1cc(-n2ccnc2)c2ccc(Cl)c(Cl)c2n1 [I-837] | < 2000 nM | < 2000 nM | – | –
3 | O=C(O)CCOC[C@@H]1CCN1c1cc(-n2ccnc2)c2ccc(Cl)c(Cl)c2n1 [I-688] | < 2000 nM | – | < 2000 nM | –
4 | O=C(O)CCOC1CCN(c2cc(-n3ccnc3)c3ccc(Cl)c(Cl)c3n2)CC1 [I-864] | < 2000 nM | > 10000 nM | – | –
5 | NS(=O)(=O)CCNc1cc(-n2ccnc2)c2ccc(Cl)c(Cl)c2n1 [I-200] | – | – | < 2000 nM | < 2000 nM
6 | COC(=O)[C@@H]1C[C@@H](C)CN1c1cc(-n2ccnc2)c2ccc(Cl)c(Cl)c2n1 [I-585] | 2000 to 30000 nM | – | < 2000 nM | –
7 | CC(C)OC(=O)[C@@H]1CCCN1c1cc(-n2ccnc2)c2ccc(Cl)c(Cl)c2n1 [I-595] | 2000 to 30000 nM | – | 2000 to 10000 nM | –
8 | C[C@@H]1C[C@@H](COCCC(=O)O)N(c2cc(-n3ccnc3)c3ccc(Cl)c(Cl)c3n2)C1 [I-795] | < 2000 nM | < 2000 nM | – | –
9 | CC1CCN(c2cc(-n3ccnc3)c3ccc(Cl)c(Cl)c3n2)C1C(=O)O (stereo not drawn) [I-473] | < 2000 nM | – | < 2000 nM | –
10 | O=C(O)CCOC[C@@H]1CC(F)(F)CN1c1cc(-n2ccnc2)c2ccc(Cl)c(Cl)c2n1 [I-699] | < 2000 nM | – | < 2000 nM | –
11 | O=C(O)C[C@H]1CCCN1c1cc(-n2ccnc2)c2ccc(Cl)c(Cl)c2n1 [I-776] | < 2000 nM | > 10000 nM | – | –
12 | COC(=O)C1C(C)CCN1c1cc(-n2ccnc2)c2ccc(Cl)c(Cl)c2n1 (stereo not drawn) [I-578] | 2000 to 30000 nM | – | 2000 to 10000 nM | –
13 | CC1(C)C[C@@H](COCCC(=O)O)N(c2cc(-n3ccnc3)c3ccc(Cl)c(Cl)c3n2)C1 [I-794] | < 2000 nM | < 2000 nM | – | –
14 | O=C(O)CCOC[C@@H]1[C@H]2C[C@H]2CN1c1cc(-n2ccnc2)c2ccc(Cl)c(Cl)c2n1 [I-710] | < 2000 nM | – | 2000 to 10000 nM | –
15 | O=C(O)CCOCC1CCCCCN1c1cc(-n2ccnc2)c2ccc(Cl)c(Cl)c2n1 (stereo not drawn) [I-865] | < 2000 nM | < 2000 nM | – | –
16 | CCCCOC(=O)[C@@H]1[C@@H](O)CCN1c1cc(-n2ccnc2)c2ccc(Cl)c(Cl)c2n1 [I-601] | 2000 to 30000 nM | – | < 2000 nM | –
17 | O=C(O)CCOC[C@@H]1C[C@@H](C2CCCCC2)CN1c1cc(-n2ccnc2)c2ccc(Cl)c(Cl)c2n1 [I-803] | < 2000 nM | < 2000 nM | – | –
18 | O=C(O)CCOC[C@@H]1CCCN1c1cc(-c2cn[nH]c2)c2ccc(Cl)c(Cl)c2n1 [I-670] | < 2000 nM | – | < 2000 nM | –
19 | O=C(O)CCOCC[C@@H]1CCCN1c1cc(-n2ccnc2)c2ccc(Cl)c(Cl)c2n1 [I-672] | < 2000 nM | – | < 2000 nM | –
20 | COc1ccc2c(-n3ccnc3)cc(N3CCC[C@H]3COCCC(=O)O)nc2c1Cl [I-856] | < 2000 nM | 2000 to 10000 nM | – | –
21 | CN(CCOc1ccccc1C(=O)O)c1cc(-n2ccnc2)c2ccc(Cl)c(Cl)c2n1 [I-842] | < 2000 nM | 2000 to 10000 nM | – | –

Row | Compound | IC50 [1, 3] | IC50 [2, 4] | IC50 [2, 5] | IC50 [1, 6]
22 | COC(=O)C[C@@H]1[C@@H](O)CCN1c1cc(-n2ccnc2)c2ccc(Cl)c(Cl)c2n1 [I-786, methyl 2-((2R,3S)-1-(7,8-dichloro-4-(1H-imidazol-1-yl)quinolin-2-yl)-3-hydroxypyrrolidin-2-yl)acetate] | < 2000 nM | 2000 to 10000 nM | – | –
23 | O=C(O)COCC[C@@H]1CC[C@@H](C(=O)O)N1c1cc(-n2ccnc2)c2ccc(Cl)c(Cl)c2n1 [I-715, (2S,5S)-5-(2-(carboxymethoxy)ethyl)-1-(7,8-dichloro-4-(1H-imidazol-1-yl)quinolin-2-yl)pyrrolidine-2-carboxylic acid] | < 2000 nM | – | > 10000 nM | –
24 | O=C(O)c1ccccc1OC[C@@H]1CCCN1c1cc(-n2ccnc2)c2ccc(Cl)c(Cl)c2n1 [I-733] | < 2000 nM | – | < 2000 nM | –
25 | CN(CCCOc1ccccc1C(=O)O)c1cc(-n2ccnc2)c2ccc(Cl)c(Cl)c2n1 [I-846] | < 2000 nM | < 2000 nM | – | –
26 | COC(=O)[C@@H]1CC2(CC2)CN1c1cc(-n2ccnc2)c2ccc(Cl)c(Cl)c2n1 [I-582] | < 2000 nM | – | < 2000 nM | –
27 | O=C(O)c1cnn(CCNc2cc(-n3ccnc3)c3ccc(Cl)c(Cl)c3n2)c1 [I-889] | < 2000 nM | > 10000 nM | – | –
28 | O=C(O)C1CCCC1OC[C@@H]1CCCN1c1cc(-n2ccnc2)c2ccc(Cl)c(Cl)c2n1 (stereo partly drawn) [I-816] | < 2000 nM | < 2000 nM | – | –
29 | O=C(O)CCOC[C@@H]1CCCN(c2cc(-n3ccnc3)c3ccc(Cl)c(Cl)c3n2)C1 [I-750] | < 2000 nM | – | < 2000 nM | –
30 | O=C(O)CCC[C@@H]1CCCN1c1cc(-n2ccnc2)c2ccc(Cl)c(Cl)c2n1 [I-682] | < 2000 nM | – | < 2000 nM | –
31 | O=C(O)CCOCC(Cc1ccccc1)Nc1cc(-n2ccnc2)c2ccc(Cl)c(Cl)c2n1 (stereo not drawn) [I-695] | 2000 to 30000 nM | – | 2000 to 10000 nM | –
32 | O=C(O)CCCCNc1cc(-n2ccnc2)c2ccc(Cl)c(Cl)c2n1 [I-835] | < 2000 nM | 2000 to 10000 nM | – | –
33 | O=C(O)CCNC[C@@H]1CCCN1c1cc(-n2ccnc2)c2ccc(Cl)c(Cl)c2n1 [I-756, (5)-3-(((1-(7,8-dichloro-4-(1H-imidazol-1-yl)quinolin-2-yl)pyrrolidin-2-yl)methyl)amino)propanoic acid] | 2000 to 30000 nM | > 10000 nM | – | –
34 | O=C(O)C(O)CC[C@@H]1CCCN1c1cc(-n2ccnc2)c2ccc(Cl)c(Cl)c2n1 (stereo partly drawn) [I-817, 4-((S)-1-(7,8-dichloro-4-(1H-imidazol-1-yl)quinolin-2-yl)pyrrolidin-2-yl)-2-hydroxybutanoic acid] | < 2000 nM | > 10000 nM | – | –
35 | O=C(O)c1ccn(C[C@@H]2CCCN2c2cc(-n3ccnc3)c3ccc(Cl)c(Cl)c3n2)c1 [I-732] | < 2000 nM | – | < 2000 nM | –
36 | COC(=O)CCN(C)C[C@@H]1CCCN1c1cc(-n2ccnc2)c2ccc(Cl)c(Cl)c2n1 [I-755, methyl (S)-3-(((1-(7,8-dichloro-4-(1H-imidazol-1-yl)quinolin-2-yl)pyrrolidin-2-yl)methyl)(methyl)amino)propanoate] | > 30000 nM | > 10000 nM | – | –
37 | C[C@H]1CCN(c2cc(-n3ccnc3)c3ccc(Cl)c(Cl)c3n2)[C@@H]1COCCC(=O)O [I-792] | < 2000 nM | < 2000 nM | – | –
38 | O=C(O)C[C@@H]1CCCN1c1cc(-n2ccnc2)c2ccc(Cl)c(Cl)c2n1 [I-443] | – | – | 2000 to 10000 nM | < 2000 nM
39 | CCOC(=O)CNC(=O)C[C@@H]1[C@@H](O)CCN1c1cc(-n2ccnc2)c2ccc(Cl)c(Cl)c2n1 [I-787, ethyl (2-((2R,3S)-1-(7,8-dichloro-4-(1H-imidazol-1-yl)quinolin-2-yl)-3-hydroxypyrrolidin-2-yl)acetyl)glycinate] | < 2000 nM | 2000 to 10000 nM | – | –
40 | CN(CCOc1cccc(CC(=O)O)c1)c1cc(-n2ccnc2)c2ccc(Cl)c(Cl)c2n1 [I-843] | < 2000 nM | 2000 to 10000 nM | – | –
41 | O=C(O)CCNC(=O)[C@@H]1[C@@H](O)CCN1c1cc(-n2ccnc2)c2ccc(Cl)c(Cl)c2n1 [I-784, 3-((2S,3S)-1-(7,8-dichloro-4-(1H-imidazol-1-yl)quinolin-2-yl)-3-hydroxypyrrolidine-2-carboxamido)propanoic acid] | < 2000 nM | > 10000 nM | – | –
42 | O=C(O)CCOC[C@@H]1C[C@@H](c2ccccc2)CN1c1cc(-n2ccnc2)c2ccc(Cl)c(Cl)c2n1 [I-802] | < 2000 nM | < 2000 nM | – | –
